Data published in patent US12697325B2 (TENNOR THERAPEUTICS (SUZHOU) LIMITED, priority 2021, dated 2026).

System: Acinetobacter baumannii clinical strains
Assay: Information of drug resistance of 10 clinical strains
Assay type: cell-based
Parameters: key: S: Drug Susceptible; I: Drug Intermediate; R: Drug Resistant

Row | Compound | Drug resistance (strain TNP041702) | Drug resistance (strain TNP041703) | Drug resistance (strain TNP041704) | Drug resistance (strain TNP041705) | Drug resistance (strain TNP041706) | Drug resistance (strain TNP041707) | Drug resistance (strain TNP041708) | Drug resistance (strain TNP041709) | Drug resistance (strain TNP041710) | Drug resistance (strain TNP041711)
1 | Cc1nnc(SCC2=C(C(=O)O)N3C(=O)[C@@H](NC(=O)Cn4cnnn4)[C@H]3SC2)s1 [Cefazolin] | R | R | R | R | R | R | R | R | R | R
2 | CO/N=C(\C(=O)N[C@@H]1C(=O)N2C(C(=O)O)=C(COC(N)=O)CS[C@H]12)c1ccco1 [Cefuroxime] | R | R | R | R | R | R | R | R | R | R
3 | CC(C)(O/N=C(\C(=O)N[C@@H]1C(=O)N2C(C(=O)[O-])=C(C[n+]3ccccc3)CS[C@H]12)c1csc(N)n1)C(=O)O [Ceftazidime] | R | R | R | R | R | R | R | R | R | R
4 | NCC[C@H](O)C(=O)N[C@@H]1C[C@H](N)[C@@H](O[C@H]2O[C@H](CN)[C@@H](O)[C@H](O)[C@H]2O)[C@H](O)[C@H]1O[C@H]1O[C@H](CO)[C@@H](O)[C@H](N)[C@H]1O [Amikacin] | R | R | R | R | S | R | S | R | R | R
5 | C[C@@H](O)[C@H]1C(=O)N2C(C(=O)O)=C(SCCN=CN)C[C@H]12 [Imipenem] | R | R | R | R | R | R | R | R | R | R
